Measurements: patent publication US8933075B2, “Compounds useful as antiviral agents, compositions, and methods of use” (priority 2010, dated 2015)

The compounds below were run on A/Udorn/72 (H3N2) virus (assay: Plaque assay in MDCK cells: EC50 by reduction of plaque number). Conditions: MDCK.
Assay type: cell-based, influenza virus

| SMILES | EC50 [nM] |
| --- | --- |
| O=C1/C(=C/c2cc(CCCO)c(-c3ccc(Cl)cc3)n2Cc2ccccc2)SC(=S)N1C1CC2CCC1C2 (stereo not shown) [Compound 256] | < 100 |
| O=C1/C(=C/c2oc(-c3ccc(Cl)cc3)cc2CCCO)SC(=S)N1C1C2CC3CC(C2)CC1C3 (stereo not shown) [Compound 100] | < 100 |
| COC(=O)COc1ccc2c(O)c(-c3ccc(/C=C4\SC(=S)N(C5CC6CCC5C6)C4=O)o3)c(=O)oc2c1 (stereo not shown) [Compound 318] | < 100 |
| COc1ccc(-c2ccc(/C=C3\SC(=S)N(C4CCCCC4)C3=O)o2)c(F)c1F [Compound 52] | < 100 |
| O=C1/C(=C/c2cn(-c3ccc([N+](=O)[O-])cc3)cn2)SC(=S)N1C1CCCCCCC1 [Compound 62] | 250 to 1000 |
| COc1cc(-c2ccc(/C=C3\SC(=S)N(C4CC5CCC4C5)C3=O)o2)ccc1O (stereo not shown) [Compound 24] | < 100 |
| COc1ccc(-c2ccc(/C=C3\SC(=S)N(C4CC5CCC4C5)C3=O)o2)cc1 (stereo not shown) [Compound 8] | < 100 |
| COc1ccc2c(O)c(-c3ccc(/C=C4\SC(=S)N(C5C6CC7CC(C6)CC5C7)C4=O)o3)c(=O)oc2c1OC (stereo not shown) [Compound 72] | 100 to 250 |
| Cn1c(/C=C2\SC(=S)N(C3CC4CCC3C4)C2=O)cc(C#CCCCOC(=O)[C@@H]2CC(=O)N(C(C)(C)C)C(=O)N2)c1-c1ccc(Cl)cc1 (stereo partly shown) [Compound 273] | 100 to 250 |
| O=C1/C(=C/c2c[nH]c3ccccc23)SC(=S)N1C1CC2CCC1C2 (stereo not shown) [Compound 216, (Z)-5-((1H-indol-3-yl)methylene)-3-(bicyclo[2.2.1]heptan-2-yl)-2-thioxothiazolidin-4-one] | < 100 |
| O=C1/C(=C/c2ccco2)SC(=S)N1C1CCCCCC1 [Compound 219, (Z)-3-cycloheptyl-5-(furan-2-ylmethylene)-2-thioxothiazolidin-4-one] | 250 to 1000 |
| COc1cc(OC)cc(-c2cc(CCCN3CCOCC3)c(/C=C3\SC(=S)N(C4C5CC6CC(C5)CC4C6)C3=O)o2)c1 (stereo not shown) [Compound 182] | < 100 |
| O=C1/C(=C/c2oc(-c3cccc(Cl)c3)cc2CCCCCO)SC(=S)N1C1C2CC3CC(C2)CC1C3 (stereo not shown) [Compound 346] | < 100 |
| O=C1/C(=C/c2coc3ccc(Br)cc3c2=O)SC(=S)N1C1CCC2CCCCC2C1 (stereo not shown) [Compound 206] | < 100 |
| COc1cc(OC)cc(-c2cc(CCCCCCO)c(/C=C3\SC(=S)N(C4C5CC6CC(C5)CC4C6)C3=O)o2)c1 (stereo not shown) [Compound 112] | < 100 |
| COc1ccc(-c2ccc(/C=C3\SC(=S)N(C4C5CC6CC(C5)CC4C6)C3=O)o2)cc1 (stereo not shown) [Compound 9] | < 100 |
| O=C1/C(=C/c2cc3cc(Br)ccc3[nH]2)SC(=S)N1C1C2CC3CC(C2)CC1C3 (stereo not shown) [Compound 213, 3-adamantan-2-yl-5-(5-bromo-1H-indol-2-ylmethylene)-2-thioxo-thiazolidin-4-one] | < 100 |
| O=C1/C(=C/c2ccccc2)SC(=S)N1C1CC2CCC1C2 (stereo not shown) [Compound 207] | 250 to 1000 |
| CC(C)(C)N1C(=O)C[C@@H](C(=O)OCCCc2cc(-c3ccc(Cl)cc3)[nH]c2/C=C2\SC(=S)N(C3C4CC5CC(C4)CC3C5)C2=O)NC1=O (stereo partly shown) [Compound 252] | < 100 |
| O=C1/C(=C/c2oc(-c3ccc(F)cc3)cc2CCCN2CCNCC2)SC(=S)N1C1C2CC3CC(C2)CC1C3 (stereo not shown) [Compound 189] | < 100 |
| COc1cccc(-c2cc(CCCO)c(/C=C3\SC(=S)N(C4CC5CCC4C5)C3=O)[nH]2)c1 (stereo not shown) [Compound 232] | < 100 |

| SMILES | EC50 [nM] |
| --- | --- |
| O=C1/C(=C/c2oc(-c3ccc(F)cc3)cc2CCCOC[C@@H](O)CO)SC(=S)N1C1CC2CCC1C2 (stereo partly drawn) [Compound 204, (Z)-3-(bicyclo[2.2.1]heptan-2-yl)-5-((3-(3-((S)-2,3-dihydroxypropoxy)propyl)-5-(4′-fluorophenyl)-furan-2-yl)methylene)-2-thioxothiazolidin-4-one] | < 100 |
| O=C1/C(=C/c2ccc(Br)s2)SC(=S)N1C1C2CC3CC(C2)CC1C3 (stereo not shown) [Compound 212] | < 100 |
| COc1cc(OC)cc(-c2cc(CCCNC(=O)[C@H](CC(C)C)NC(=O)OCC3c4ccccc4-c4ccccc43)c(/C=C3\SC(=S)N(C4CC5CCC4C5)C3=O)o2)c1 (stereo partly shown) [Compound 159] | < 100 |
| O=C1/C(=C/c2csc3ccccc23)SC(=S)N1C1C2CC3CC(C2)CC1C3 (stereo not shown) [Compound 211, 3-adamantan-2-yl-5-benzo[b]thiophen-3-ylmethylene-2-thioxo-thiazolidin-4-one] | < 100 |
| COc1cccc(-c2cc(CCCCCO)c(/C=C3\SC(=S)N(C4C5CC6CC(C5)CC4C6)C3=O)o2)c1 (stereo not shown) [Compound 347] | < 100 |
| O=C1/C(=C/c2sc(-c3ccc(Cl)cc3)cc2C#CCCCO)SC(=S)N1C1CC2CCC1C2 (stereo not shown) [Compound 291] | < 100 |
| O=C1/C(=C/c2oc(-c3ccc(Cl)cc3)cc2CCCCCO)SC(=S)N1C1C2CC3CC(C2)CC1C3 (stereo not shown) [Compound 334] | < 100 |
| O=C1/C(=C/c2ncc(-c3ccccc3)o2)SC(=S)N1C1CCCCCC1 [Compound 65] | < 100 |
| COc1cc(O)cc(-c2cc(CCCC(C(=O)O)C(=O)O)c(/C=C3\SC(=S)N(C4C5CC6CC(C5)CC4C6)C3=O)o2)c1 (stereo not shown) [Compound 136] | 100 to 250 |
| O=C1/C(=C/c2ccc(-c3cc(O)cc(O)c3)o2)SC(=S)N1C1C2CC3CC(C2)CC1C3 (stereo not shown) [Compound 5] | < 100 |
| COc1ccc(-c2ccc(/C=C3\SC(=S)N(C4CC5CCC4C5)C3=O)o2)cc1C(=O)N[C@@H](Cc1ccccc1)C(=O)O (stereo partly shown) [Compound 85] | < 100 |
| O=C1/C(=C/c2sc(-c3ccc(Cl)cc3)cc2CCCCCO)SC(=S)N1C1CC2CCC1C2 (stereo not shown) [Compound 278] | < 100 |
| O=C1/C(=C/c2cc3ccccc3s2)SC(=S)N1C1CC2CCC1C2 (stereo not shown) [Compound 214, (Z)-5-(benzo[b]thiophen-2-ylmethylene)-3-(bicyclo[2.2.1]heptan-2-yl)-2-thioxothiazolidin-4-one] | < 100 |
| O=C1/C(=C/c2ccc(-c3ccc(Cl)cc3)s2)SC(=S)N1C1CC2CCC1C2 (stereo not shown) [Compound 316] | < 100 |
| COc1cccc(-c2sc(/C=C3\SC(=S)N(C4C5CC6CC(C5)CC4C6)C3=O)cc2C#CCCCO)c1 (stereo not shown) [Compound 289] | < 100 |
| CC(C)(C)OC(=O)N[C@@H](CC(N)=O)C(=O)OCCCC#Cc1cc(-c2cccc(Cl)c2)sc1/C=C1\SC(=S)N(C2C3CC4CC(C3)CC2C4)C1=O (stereo partly shown) [Compound 312] | < 100 |
| CCOC(=O)c1c(F)ccc(-c2ccc(/C=C3\SC(=S)N(C4CCCCCCC4)C3=O)o2)c1F [Compound 46] | < 100 |
| COc1cc(OC)cc(-c2cc(CCCOC(=O)[C@H](Cc3ccccc3)NC(=O)OC(C)(C)C)c(/C=C3\SC(=S)N(C4CC5CCC4C5)C3=O)o2)c1 (stereo partly shown) [Compound 142] | < 100 |
| O=C1/C(=C/c2oc(-c3ccc(F)cc3)cc2CCCN2CCNCC2)SC(=S)N1C1CC2CCC1C2 (stereo not shown) [Compound 187] | < 100 |
| O=C1/C(=C/c2ccc(-c3c(O)c4ccc(O)cc4oc3=O)o2)SC(=S)N1C1CC2CCC1C2 (stereo not shown) [Compound 324] | < 100 |
| O=C1/C(=C/c2ccc(-c3ccc(Cl)cc3)s2)SC(=S)N1C1C2CC3CC(C2)CC1C3 (stereo not shown) [Compound 317] | < 100 |

| SMILES | EC50 [nM] |
| --- | --- |
| O=C(O)c1ccc(-c2ccc(/C=C3\SC(=S)N(C4C5CC6CC(C5)CC4C6)C3=O)o2)cc1 (stereo not shown) [Compound 3] | < 100 |
| COc1cc(OC)cc(-c2cc(CCCC(C(=O)O)C(=O)O)c(/C=C3\SC(=S)N(C4C5CC6CC(C5)CC4C6)C3=O)o2)c1 (stereo not shown) [Compound 135] | 100 to 250 |
| O=C1/C(=C/c2ncc(-c3ccccc3)o2)SC(=S)N1C1CCCCCCC1 [Compound 66] | < 100 |
| O=C1/C(=C/c2sc(-c3ccc(Cl)cc3)cc2-c2ccc(Cl)cc2)SC(=S)N1C1CC2CCC1C2 (stereo not shown) [Compound 274] | < 100 |
| O=C1/C(=C/c2ccc(-c3c(O)c4cc(O)ccc4oc3=O)o2)SC(=S)N1C1CC2CCC1C2 (stereo not shown) [Compound 325] | < 100 |
| O=C1/C(=C/c2cc(CCCCCO)c(-c3ccc(Cl)cc3)s2)SC(=S)N1C1CC2CCC1C2 (stereo not shown) [Compound 284] | < 100 |
| COc1cc(OC)cc(-c2cc(CCCCN3CCOCC3)c(/C=C3\SC(=S)N(C4CC5CCC4C5)C3=O)o2)c1 (stereo not shown) [Compound 359] | < 100 |
| COc1cc(OC)cc(-c2ccc(/C=C3\SC(=S)N(C4C5CC6CC(C5)CC4C6)C3=O)[nH]2)c1 (stereo not shown) [Compound 59] | < 100 |
| COCOc1cc(=O)oc2ccc(-c3ccc(/C=C4\SC(=S)N(C5CC6CCC5C6)C4=O)o3)cc12 (stereo not shown) [Compound 76] | 250 to 1000 |
| COc1cc(OC)cc(-c2cc(CCCOC[C@@H](O)CO)c(/C=C3\SC(=S)N(C4CC5CCC4C5)C3=O)o2)c1 (stereo partly drawn) [Compound 202, (Z)-3-(bicyclo[2.2.1]heptan-2-yl)-5-((3-(3-((S)-2,3-dihydroxypropoxy)propyl)-5-(3′,5′-dimethoxy-phenyl)-furan-2-yl)methylene)-2-thioxothiazolidin-4-one] | < 100 |
| COc1cc(OC)cc(-c2cc(CCCn3cc(CO)nn3)c(/C=C3\SC(=S)N(C4C5CC6CC(C5)CC4C6)C3=O)o2)c1 (stereo not shown) [Compound 199, (Z)-3-(adamantan-2-yl)-5-((5-(3′,5′-dimethoxyphenyl)-3-(3-(4′-(hydroxymethyl)-1H-1′,2′,3′-triazol-1-yl)-propyl)furan-2-yl)methylene)-2-thioxothiazolidin-4-one] | < 100 |
| CCCCCc1ccc2oc(=O)c(-c3ccc(/C=C4\SC(=S)N(C5CC6CCC5C6)C4=O)o3)c(O)c2c1 (stereo not shown) [Compound 320] | < 100 |
| O=C1/C(=C/c2sc(-c3cccc(Cl)c3)cc2C#CCCCO)SC(=S)N1C1C2CC3CC(C2)CC1C3 (stereo not shown) [Compound 285] | < 100 |
| O=C1/C(=C/c2oc(-c3ccc(F)cc3)cc2CCCCCO)SC(=S)N1C1C2CC3CC(C2)CC1C3 (stereo not shown) [Compound 106] | < 100 |
| COc1cccc(-c2cc(CCCO)c(/C=C3\SC(=S)N(C4C5CC6CC(C5)CC4C6)C3=O)s2)c1 (stereo not shown) [Compound 282] | < 100 |
| O=C1/C(=C/c2oc(-c3ccc(F)cc3)cc2CCCCCCO)SC(=S)N1C1C2CC3CC(C2)CC1C3 (stereo not shown) [Compound 108] | < 100 |
| COC(=O)C[C@H](NC(=O)c1cc(-c2ccc(/C=C3\SC(=S)N(C4CC5CCC4C5)C3=O)o2)ccc1OC)C(=O)O (stereo partly shown) [Compound 90] | 100 to 250 |
| CC(C)(C)OC(=O)N[C@@H](CC(N)=O)C(=O)N1CCN(CCCCCc2cc(-c3ccc(Cl)cc3)[nH]c2/C=C2\SC(=S)N(C3CC4CCC3C4)C2=O)CC1 (stereo partly shown) [Compound 255] | < 100 |
| COc1cc(OC)cc(-c2cc(CCCCCN3CCOCC3)c(/C=C3\SC(=S)N(C4CC5CCC4C5)C3=O)o2)c1 (stereo not shown) [Compound 360] | < 100 |
